These results are taken from ChEMBL document CHEMBL1201862, “PubChem BioAssay data set” (2004).

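How tested: cells in 96-well plates exposed to compound for 48 hours at five concentrations. GI50: concentration for 50% inhibition of growth.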 Active and inactive are the calls of the source. No stated cut-off is given here; in the data, active = GI50 up to about 1.1 µM and inactive = higher.

Some test systems named below: HT-29; LOX IMVI; RPMI-8226; TK-10; IGROV-1; UACC-257; HL-60; NCI-H522; HOP-62; Hs-578T; PC-3; SK-MEL-28; CCRF-CEM; UO-31; HOP-92; NCI-H23; HCT-116; OVCAR-4; RXF 393; ACHN.
What all share (assay): NCI anticancer screen, dose series, 48 h

With `CCn1c2c(c3ccccc3c1=O)C(=O)c1ccccc1-2`, the GI50 in the test with HT-29, in the test on LOX IMVI, in the test with RPMI-8226, with TK-10, in the test on IGROV-1 and in the test with UACC-257 was > 100 µM (inactive) in each case. Also, the GI50 is > 100 µM (inactive) in the test on HL-60; > 100 µM (inactive) in the test on NCI-H522; > 100 µM (inactive) in the test on HOP-62; 74.5 µM (inactive) with Hs-578T; > 100 µM (inactive) in the test on PC-3; > 100 µM (inactive) in the test with SK-MEL-28. The GI50 in the test with CCRF-CEM was 22 µM (inactive); in the test on UO-31, > 100 µM (inactive); with HOP-92 it was > 100 µM (inactive); in the test with NCI-H23, > 100 µM (inactive); in the test with HCT-116 it was > 100 µM (inactive); in the test with OVCAR-4 it was > 100 µM (inactive).

Consider `COC(=O)c1c(C#C[Si](C)(C)C)c(C#C[Si](C)(C)C)c(C#C[Si](C)(C)C)c(C#C[Si](C)(C)C)c1C(=O)OC`, for which the GI50 in the test on HT-29, in the test with RXF 393, in the test with RPMI-8226, in the test on TK-10, in the test on IGROV-1 and in the test on UACC-257 was > 100 µM (inactive) each time. Moreover, the GI50 with HL-60, in the test on NCI-H522, in the test on ACHN, with Hs-578T, with PC-3 and with SK-MEL-28 was > 100 µM (inactive) throughout. In addition, the GI50 in the test with CCRF-CEM, in the test on UO-31, in the test with HOP-92, in the test on NCI-H23, with HCT-116 and in the test with OVCAR-4 was > 100 µM (inactive) each time.

As for `CCCc1nc(Cl)c(Cl)c(Cl)n1`, the GI50 is > 47.6 µM (inactive) in the test on HT-29; 19.2 µM (inactive) with RXF 393; 3.82 µM (inactive) in the test on LOX IMVI; > 71.9 µM (inactive) with TK-10; 17.4 µM (inactive) with IGROV-1; 32.7 µM (inactive) with UACC-257. Further, the GI50 is 15.4 µM (inactive) in the test with HL-60; 12.4 µM (inactive) in the test with NCI-H522; 33.7 µM (inactive) with HOP-62; 14.6 µM (inactive) in the test on Hs-578T; 0.426 µM (active) with PC-3; 56.5 µM (inactive) in the test on SK-MEL-28. Besides, the GI50 with CCRF-CEM is 8.81 µM (inactive); in the test with UO-31, 2.71 µM (inactive); in the test on HOP-92, 21 µM (inactive); in the test on NCI-H23 it was 18.7 µM (inactive); with HCT-116, 9.68 µM (inactive); in the test on OVCAR-4 it was 16 µM (inactive).

Consider `O=C(O)CCC(=O)OC1N=C(c2ccccc2Cl)c2cc([N+](=O)[O-])ccc2NC1=O` (stereo not given), for which the GI50 with HT-29 is > 100 µM (inactive); in the test on RXF 393 it was 47.3 µM (inactive); in the test with LOX IMVI, 85.7 µM (inactive); in the test with TK-10, 86.7 µM (inactive); in the test on IGROV-1 it was 95.9 µM (inactive); with UACC-257 it was > 100 µM (inactive). Further, the GI50 in the test on HL-60 is 38.5 µM (inactive); in the test on NCI-H522, 55.1 µM (inactive); with ACHN it was 57.8 µM (inactive); in the test with HOP-62, 70.6 µM (inactive); in the test on Hs-578T, > 100 µM (inactive); in the test with PC-3, 23.6 µM (inactive). Moreover, the GI50 with SK-MEL-28 was 60.1 µM (inactive); in the test with CCRF-CEM it was 26.3 µM (inactive); in the test on UO-31 it was 44.6 µM (inactive); in the test with HOP-92, 69.2 µM (inactive); in the test with NCI-H23, > 100 µM (inactive); in the test on HCT-116 it was 20.5 µM (inactive). Besides, the GI50 in the test with OVCAR-4 is 42.2 µM (inactive).

Take `COP(=O)(OC)[C@@](O)(c1ccccc1)[C@@H](O)[C@@H](O)c1ccccc1`: the GI50 in the test with HT-29 was > 100 µM (inactive); in the test on RXF 393, > 100 µM (inactive); with LOX IMVI, 17.8 µM (inactive); in the test on TK-10, > 100 µM (inactive); in the test with IGROV-1, 87.5 µM (inactive); with UACC-257, > 100 µM (inactive). In addition, the GI50 is > 100 µM (inactive) in the test on HL-60; 37.4 µM (inactive) in the test with NCI-H522; > 100 µM (inactive) with ACHN; > 100 µM (inactive) in the test with Hs-578T; > 100 µM (inactive) in the test on PC-3; > 100 µM (inactive) with SK-MEL-28. The GI50 in the test on CCRF-CEM was 21.7 µM (inactive); in the test on UO-31, > 100 µM (inactive); in the test with HOP-92, > 100 µM (inactive); with NCI-H23, > 100 µM (inactive); in the test on HCT-116, 29.3 µM (inactive); in the test with OVCAR-4 it was > 100 µM (inactive).

With `CC(=O)OC12OC(C)(C3C(=O)N(c4ccccc4)C(=O)C31)N(c1ccccc1)C2=O` (stereo not given), the GI50 was > 100 µM (inactive) in the test with HT-29; > 100 µM (inactive) with RXF 393; > 100 µM (inactive) in the test with LOX IMVI; > 100 µM (inactive) in the test with TK-10; > 100 µM (inactive) in the test with IGROV-1; 16.7 µM (inactive) in the test on UACC-257. The GI50 was > 100 µM (inactive) with HL-60; > 100 µM (inactive) in the test with NCI-H522; > 100 µM (inactive) in the test with ACHN; > 100 µM (inactive) in the test with HOP-62; > 100 µM (inactive) in the test with Hs-578T; 69.3 µM (inactive) in the test with PC-3. Besides, the GI50 with SK-MEL-28 is > 100 µM (inactive); in the test on CCRF-CEM, > 100 µM (inactive); in the test on UO-31, > 100 µM (inactive); in the test on HOP-92, 45.7 µM (inactive); in the test on NCI-H23 it was > 100 µM (inactive); with HCT-116, > 100 µM (inactive). For the same compound, the GI50 with OVCAR-4 is 51.4 µM (inactive).

As for `CC1(C)OCC([C@H]2O[C@@H](CC(=S)NCCCCCCCCCCCCNC(=S)C[C@H]3O[C@@H](C4COC(C)(C)O4)[C@H]4OC(C)(C)O[C@H]43)[C@H]3OC(C)(C)O[C@H]32)O1` (stereo not given in full), the GI50 in the test on HT-29 was 45.7 µM (inactive); in the test with RXF 393, > 100 µM (inactive); in the test on LOX IMVI it was 79.1 µM (inactive); in the test on RPMI-8226, 15.7 µM (inactive); with TK-10, > 100 µM (inactive); with IGROV-1, > 100 µM (inactive). The GI50 in the test with UACC-257 is 42.5 µM (inactive); with HL-60 it was 30.4 µM (inactive); with NCI-H522, 45.3 µM (inactive); in the test with ACHN, 49.3 µM (inactive); with HOP-62 it was > 100 µM (inactive); in the test on Hs-578T, > 100 µM (inactive). Further, the GI50 with PC-3 was 25.5 µM (inactive); with SK-MEL-28 it was > 100 µM (inactive); with UO-31, 19 µM (inactive); in the test with HOP-92, > 100 µM (inactive); with NCI-H23, 30.7 µM (inactive); with HCT-116 it was 35.7 µM (inactive). Also, in the test with OVCAR-4, the GI50 was 43.3 µM (inactive).

For the compound `Cc1nc2c(nc1C)-c1c(c3c(n1Cc1ccccc1)C(=O)CCC3)C(=O)C2=O`, the GI50 is 4.65 µM (inactive) in the test with HT-29; 3.14 µM (inactive) with LOX IMVI; 1.84 µM (inactive) in the test with RPMI-8226; 18.8 µM (inactive) in the test with TK-10; 2.58 µM (inactive) in the test on IGROV-1; 6.37 µM (inactive) in the test with UACC-257. The GI50 is 3.09 µM (inactive) in the test on HL-60; 2.86 µM (inactive) in the test with NCI-H522; 2.07 µM (inactive) in the test with ACHN; 8.79 µM (inactive) in the test on HOP-62; 4.2 µM (inactive) in the test with Hs-578T; 5.27 µM (inactive) in the test on PC-3. The GI50 was 2.02 µM (inactive) with SK-MEL-28; 3.03 µM (inactive) in the test on CCRF-CEM; 2.08 µM (inactive) in the test on UO-31; 3.4 µM (inactive) in the test on HOP-92; 3.69 µM (inactive) with NCI-H23; 4.84 µM (inactive) in the test with HCT-116. The GI50 with OVCAR-4 is 1.81 µM (inactive).

Turning to `COP(=O)(OC)C(O)/C=C/c1ccco1` (stereo not given), the GI50 with HT-29, with RXF 393, in the test on LOX IMVI, in the test on RPMI-8226, in the test on IGROV-1 and in the test with UACC-257 was > 100 µM (inactive) each time. For the same compound, the GI50 in the test on HL-60, in the test on NCI-H522, in the test with ACHN, with HOP-62, with Hs-578T and in the test on PC-3 was > 100 µM (inactive) throughout. The GI50 in the test on SK-MEL-28, in the test on UO-31, in the test on HOP-92, with NCI-H23, in the test with HCT-116 and in the test with OVCAR-4 was > 100 µM (inactive) each time.

Turning to `O=C1Nc2ccc([N+](=O)[O-])cc2/C1=N/NC(=S)Nc1ccccc1`, the GI50 with HT-29 was 5.37 µM (inactive); in the test with RXF 393 it was 11.6 µM (inactive); in the test with LOX IMVI it was 9.46 µM (inactive); in the test on RPMI-8226 it was 15.5 µM (inactive); in the test on TK-10 it was 6.11 µM (inactive); in the test with IGROV-1 it was 1.41 µM (inactive). Besides, the GI50 is 12.7 µM (inactive) in the test on UACC-257; 5.21 µM (inactive) in the test on HL-60; 3.23 µM (inactive) with ACHN; 8.57 µM (inactive) with HOP-62; 35.7 µM (inactive) in the test with Hs-578T; 5.5 µM (inactive) in the test with PC-3. The GI50 was 16.5 µM (inactive) in the test with SK-MEL-28; 2.16 µM (inactive) with CCRF-CEM; 4.79 µM (inactive) in the test on UO-31; 2.92 µM (inactive) in the test with HOP-92; 9.33 µM (inactive) in the test on NCI-H23; 4.05 µM (inactive) in the test on HCT-116. The GI50 in the test with OVCAR-4 was 7.23 µM (inactive).
